# Entries after “also recorded” stand apart in the source; their conditions may differ.
# Columns and labels:
# [1] = Crystallographic x-ray diffraction (XRD) ice crystal formation assay; format: physicochemical; conditions: for reduction of necessary EG concentration while preventing ice formation (ice ring scores, FIG. 3D): 1 and 5 mg/mL compound, EG 15% to 30% (v/v)
# Experimental: In order to increase the throughput of library analysis, a crystallographic x-ray diffraction (XRD) technique was used to evaluate ice crystal formation. For these experiments, the compounds named “Compound 2,” “Compound 8,” “Compound 10,” “Compound 11,” “Compound 12,” “Compound 13,” and “Compound 58” were tested. Compound 58 is similar to Compound 12, except that an arginine amino acid has been appended to the N-terminal end.
# For these experiments, EG concentrations between 15% and 30% (v/v) were used. Typically, EG, DMSO, and other cryoprotectants are used during XRD sample analysis at concentrations of 35-40% (v/v) to vitrify solutions and avoid diffraction interference from ice crystals. Concentrations of 1 and 5 mg/mL of the peptoid and peptoid-peptide compounds were used. […] FIG. 3D provides ice rings scores for a variety of EG concentrations and two concentrations of Compounds 2, 8, and 12.
# “IceRing1” and “IceRing2” refer to ice formation scores, which range between 0 (no ice formation) and 15 (large ice formation).
# The sample containing Compound 12 at a concentration of 5 mg/mL (0.5% (w/v)) and EG at a concentration of 17.5% (v/v) in water was ice-free after flash freezing. […] In the figures, black spots and rings represent ice crystals.
# HEK 293 cell line = assay: Cytotoxicity assay (MTT); format: cell-based, human
# Experimental: A Tecan Genesis Robotic Workstation was used to prepare solutions in 96- and 384-well plates. Solutions contained culture media, buffers, a cryoprotectant composition of the present invention (Compound 12) or DMSO. Solutions were adjusted to the desired pH. Serial dilutions were performed to obtain solutions containing various concentrations of Compound 12 and DMSO. Control experiments were performed using only culture media.
# For these experiments, cells were seeded at low density (i.e., 10% confluence), exposed to solutions containing Compound 12 or DMSO, and placed in a 37° C. incubator. The cells were allowed to grow until control cells that were treated only with empty vehicle approached 70% confluence (typically about 3 to 5 days). Assessment for compound cytotoxicity was via MTT assay.
# HEK 293 cells = assay: Cryopreservation assay (flash freeze-thaw, Calcein AM viability); format: cell-based, human
# Experimental: Initial cryopreservation assays were performed using very simple solutions, with and without the addition of Compound 12, in order to minimize confounding outside factors. For this first set of experiments, two sample solutions were prepared. The first sample solution contained simple buffer and ethylene glycol (EG) at a concentration of 22.5% (v/v), and the second sample solution contained simple buffer, EG (22.5% (v/v)), and 5 mg/mL (0.5% (w/v)) of Compound 12.
# HEK 293 cells were grown until 70% confluent, then treated with trypsin to remove adhesion proteins and yield free floating cells. Cells were counted using a hemocytometer and sample cell concentrations were adjusted to final concentrations of 10,000 cells per microliter. Cells were then compressed into tight pellets by centrifugation, and each sample was subsequently mixed with 20 μL of one of the sample solutions. Samples were then flash frozen by immersion in liquid nitrogen, followed by rewarming in a 37° C. water bath. After the freeze-thaw process, cells were suspended in a 400× volume of culture media for recovery. The positive control sample was treated with culture media at 37° C. and not subjected to the freeze-thaw process. The negative control sample was treated with culture media only during the freeze-thaw process. After recovery, cells were stained with Calcein AM for 30 minutes and cell viability was measured using a fluorescence plate reader.
# A second set of experiments was performed to evaluate the cryopreservation potential of a formulation that contained 5 mg/mL of Compound 12 plus a mixture of glycols, disaccharides, and a general buffer. Post-thaw survival following vitrification in liquid nitrogen was evaluated as described above.
# [2] = Larger volume flash freeze / rewarm / −20° C. storage assay; format: physicochemical
# Experimental: In order to test the usefulness of compositions of the present invention at larger scales, experiments were performed using solution volumes that are similar to volumes used for standard egg and stem cell preservation. For these experiments, two samples, one containing 22.5% EG and buffer only, and another containing 22.5% EG and 5 mg/ml (0.5% w/v) of Compound 12 and buffer, were flash frozen in liquid nitrogen. […] The rewarming of the solutions in a 37° C. water bath led to an unexpected and beneficial result. The Compound 12 solution bypassed devitrification in less than 2 seconds upon rewarming (FIG. 6B, right), whereas chunks of ice were seen floating in the control sample (FIG. 6B, left) after 20 seconds. Condensation was seen on each of the tubes because the tubes were actually still much below room temperature.
# [3] = 160 mM ethylene glycol in MilliQ water, slow cooled, −20° C., one hour
# Experimental: In this experiment, four water-based samples were prepared in capillary tubes containing MilliQ purified water. One sample contained only water, and another sample contained 160 mM ethylene glycol (EG). The other two samples each contained a peptoid polymer at 9 mM. One of the peptoid polymer samples contained the peptoid polymer called “Compound 1,” while the other sample contained the peptoid polymer called “Compound 10.” The sequences of the peptoid polymers are as follows:
# After sample preparation, all samples were slow cooled and incubated at −20° C. on a Peltier cooled plate. After one hour, samples were removed and immediately photographed using a digital camera attached to a 180× Stereo Zoom microscope (FIG. 2A).
# [4] = buffer + EG 22.5% (v/v) + 5 mg/mL Compound 12 with HEK 293 cells
smiles,measurement,setting,value
"CCC(C)NCC(=O)N(CC(=O)N(CC(=O)N(CC(=O)N(CC(=O)N(CC(=O)N(CC(=O)N(CC(=O)N(CC(=O)N(CC(N)=O)CC(C)O)C(C)CC)C(C)CC)C(C)CC)CC(C)O)CC(C)O)CC(C)O)C(C)CC)C(C)CC (stereo not drawn) [Compound 2, Nsb-Nsb-Nsb-Nhp-Nhp-Nhp-Nsb-Nsb-Nsb-Nhp]","reduction of necessary EG concentration while preventing ice formation (ice ring scores, FIG. 3D)",[1],significantly reduced necessary EG concentrations while preventing ice formation
"CCC(C)NCC(=O)N(CC(=O)N(CC(=O)N(CC(=O)N(CC(=O)N(CC(=O)N(CC(=O)N(CC(=O)N(CC(=O)N(CC(N)=O)CC(C)O)CC(C)O)CC(C)O)C(C)CC)CC(C)O)CC(C)O)CC(C)O)CC(C)O)CC(C)O (stereo not drawn) [Compound 8, Nsb-Nhp-Nhp-Nhp-Nhp-Nhp-Nsb-Nhp-Nhp-Nhp]","reduction of necessary EG concentration while preventing ice formation (ice ring scores, FIG. 3D)",[1],significantly reduced necessary EG concentrations while preventing ice formation
"CCC(C)NCC(=O)N(CC(=O)N(CC(=O)N(CC(=O)N(CC(=O)N(CC(=O)N(CC(=O)N(CC(=O)N(CC(=O)N(CC(N)=O)C(C)CC)C(C)CC)CC(C)O)CC(C)O)C(C)CC)C(C)CC)CC(C)O)CC(C)O)C(C)CC (stereo not drawn) [Compound 12, Nsb-Nsb-Nhp-Nhp-Nsb-Nsb-Nhp-Nhp-Nsb-Nsb]","reduction of necessary EG concentration while preventing ice formation (ice ring scores, FIG. 3D)",[1],significantly reduced necessary EG concentrations while preventing ice formation
same,"ice formation after flash freezing (XRD, FIG. 3A)","[1]; Compound 12 5 mg/mL (0.5% (w/v)) + EG 17.5% (v/v) in water, stream of liquid nitrogen vapor",complete vitrification; also recorded: ice-free; also recorded: completely eliminate all ice formation
same,anti-icing effect in comparison to EG at the same molar concentration,[1]; Compound 12 5 mg/mL + EG 17.5% (v/v),500 times
same,toxicity (MTT assay),"HEK 293 cell line; HEK 293, at 0.5% w/v",did not show toxicity
same,toxicity (MTT assay),"HEK 293 cell line; HEK 293, at concentrations four times greater than 0.5% w/v",did not show significant toxicity
same,toxicity compared with culture media alone (MTT assay),"HEK 293 cell line; HEK 293, serial dilutions, 37° C., about 3 to 5 days",did not significantly deviate from the that of culture media alone
same,cell survival after freeze-thaw versus EG alone (FIG. 8),"HEK 293 cells; HEK 293, buffer + EG 22.5% (v/v) + 5 mg/mL Compound 12, liquid nitrogen, viability 12 hours post-thaw",greatly improved cell survival
same,cryopreservation compared to VS2E and M22,"HEK 293 cells; HEK 293, formulation containing 5 mg/mL Compound 12",superior cryopreservation
same,post-thaw survival of the cells,"HEK 293 cells; HEK 293, formulation with 5 mg/mL Compound 12 plus mixture of glycols, disaccharides, general buffer, vitrified in liquid nitrogen, 16 hours post-thaw",98%
same,devitrification on rewarming compared to sample lacking Compound 12,HEK 293 cells; [4],bypassed much more rapidly
same,vitrification during the freezing process,HEK 293 cells; [4],complete vitrification without ice formation
same,vitrification / ice formation on flash freezing in liquid nitrogen,"[2]; 22.5% EG + 5 mg/ml (0.5% w/v) Compound 12 + buffer, −196° C.",complete vitrification with no ice formation; also recorded: able to vitrify; also recorded: vitrified
same,time to bypass devitrification upon rewarming,"[2]; 22.5% EG + 5 mg/ml Compound 12, 37° C. water bath",less than 2 seconds
same,state after overnight in −20° C. freezer,"[2]; 22.5% EG + 5 mg/ml Compound 12, 100 μL samples",completely unfrozen; also recorded: remained unfrozen
same,behaviour during rewarming / thawing,"[2]; 22.5% EG + 5 mg/ml Compound 12, rewarming at 37° C.",active de-icer during thawing; also recorded: unfroze (within two seconds)
"C[S+](C)[O-] [DMSO, dimethyl sulfoxide, reference compound]",concentration above which warm survival for an extended period of time was not allowed,"HEK 293 cell line; HEK 293, MTT assay",above 0.5 % (v/v)
"OCCO [EG, ethylene glycol, reference compound]","ice formation after flash freezing (XRD, FIG. 3B)",[1]; 30% (v/v) EG alone,partial vitrification with the presence of cubic ice
same,ice crystal formation,[3],significant ice crystal formation
